Here are results for 14 compounds from PubChem BioAssay AID282 (DTP/NCI, 2004).

Each structure is given as a SMILES string. “And” between values parts separate entries of the source, which are not always exact repeats. Equal values may be shown once. Inconclusive results and toxic doses are left out.

This experiment has as its system BDF1 mice, L1210 terephthalanilide-resistant leukemia ip, survival T/C. In words: NCI In Vivo Anticancer Drug Screen. Data for tumor model L1210 Leukemia resistant to A Terephthalanilide; NSC 38280 (intraperitoneal) in B6D2F1 (BDF1) mice. Conditions: endpoint: mean survival time, higher = longer survival. Here is the method:
The antitumor activity of compounds was measured in mice bearing transplantable tumors. Survival or tumor size were measured and the results are expressed as the measurement made in the treated group (T) divided by the measurement made in the vehicle treated control group (C). The tumor model used in this assay is L1210 Leukemia resistant to A Terephthalanilide; NSC 38280 (intraperitoneal) in B6D2F1 (BDF1) mice

The mark [1] stands for this setting: dose: 0.5 mg/kg/injection, schedule: Q01DX010 (ip), vehicle: saline.
[2] abbreviates: dose: 1.0 mg/kg/injection, schedule: Q01DX010 (ip), vehicle: saline.
The mark [3] stands for this setting: dose: 2.0 mg/kg/injection, schedule: Q01DX010 (ip), vehicle: saline.
Where [4] appears, read: dose: 4.0 mg/kg/injection, schedule: Q01DX010 (ip), vehicle: saline.
Setting [5] is: dose: 62.5 micrograms/kg/injection, schedule: Q01DX010 (ip), vehicle: saline.
[6] abbreviates: dose: 125.0 micrograms/kg/injection, schedule: Q01DX010 (ip), vehicle: saline.
The mark [7] stands for this setting: dose: 500.0 micrograms/kg/injection, schedule: Q01DX010 (ip), vehicle: saline.
Where [8] appears, read: dose: 2.5 mg/kg/injection, schedule: Q01DX Z (ip), vehicle: carboxymethylcellulose (CMC).
Setting [9] is: dose: 12.5 mg/kg/injection, schedule: Q01DX010 (ip), vehicle: saline.
Where [10] appears, read: dose: 25.0 mg/kg/injection, schedule: Q01DX010 (ip), vehicle: saline.
Where [11] appears, read: dose: 8.0 mg/kg/injection, schedule: Q01DX010 (ip), vehicle: saline.

Turning to `NC(=O)N(CCCl)N=O`, the T/C runs as follows: under setting [1], 162 % of control; under setting [2], 165 % of control; (dose: 1.0 mg/kg/injection, schedule: Q01DX Z (ip), vehicle: saline) 348 % of control; (dose: 2.0 mg/kg/injection, schedule: Q01DX Z (ip), vehicle: saline) 252 % of control; (dose: 6.0 mg/kg/injection, schedule: Q01DX Z (ip), vehicle: saline) 110 % of control.
Consider `CCN(CC)c1ccc2cc3ccc(=[N+](CC)CC)cc-3oc2c1`, for which the T/C was 98 % of control under setting [2], 91 % of control under setting [3] and 96 % of control under setting [4].
As to `CSCS(=O)C[C@H](CO)NC(=O)/C=C/c1c(C)[nH]c(=O)[nH]c1=O` (some centres not stated), the T/C reads like this: under setting [5], 100 % of control; under setting [6], 100 % of control; (dose: 250.0 micrograms/kg/injection, schedule: Q01DX010 (ip), vehicle: saline) 102 % of control; under setting [7], 102 % of control.
As to `Nc1ncnc2c1ccn2C1OC(CO)C(O)C1O` (configuration not stated), the T/C by setting is: (dose: 0.23 mg/kg/injection, schedule: Q01DX Z (ip), vehicle: saline) 98 % of control; (dose: 0.47 mg/kg/injection, schedule: Q01DX Z (ip), vehicle: saline) 113 % of control; (dose: 0.93 mg/kg/injection, schedule: Q01DX Z (ip), vehicle: saline) 109 % of control; (dose: 1.87 mg/kg/injection, schedule: Q01DX Z (ip), vehicle: saline) 116 % of control; under setting [8], 103 % of control.
Consider `O=NN(CCCl)C(=O)NCCCl`, for which the T/C is 224 % of control (dose: 6.25 mg/kg/injection, schedule: Q01DX010 (ip), vehicle: saline); 105 % of control under setting [9]; 89 % of control under setting [10].
With `CCCSc1ncnc2nc[nH]c12`, the T/C is, setting by setting: (dose: 31.3 mg/kg/injection, schedule: Q01DX010 (ip), vehicle: saline) 95 % of control and 99 % of control; (dose: 44.0 mg/kg/injection, schedule: Q01DX Z (ip), vehicle: other) 96 % of control; (dose: 62.5 mg/kg/injection, schedule: Q01DX010 (ip), vehicle: saline) 106 % of control and 111 % of control; (dose: 87.5 mg/kg/injection, schedule: Q01DX Z (ip), vehicle: other) 121 % of control; (dose: 125.0 mg/kg/injection, schedule: Q01DX010 (ip), vehicle: saline) 100 % of control and 111 % of control.
Consider `O=C(Nc1ccc(C2=NCCN2)cc1)c1ccc(C(=O)Nc2ccc(C3=NCCN3)cc2)c(F)c1`, for which the T/C runs as follows: (dose: 22.5 mg/kg/injection, schedule: Q01DX010 (ip), vehicle: saline) 100 % of control and 101 % of control; (dose: 45.0 mg/kg/injection, schedule: Q01DX010 (ip), vehicle: saline) 101 % of control and 102 % of control; (dose: 90.0 mg/kg/injection, schedule: Q01DX010 (ip), vehicle: saline) 103 % of control and 106 % of control; (dose: 180.0 mg/kg/injection, schedule: Q01DX010 (ip), vehicle: saline) 100 % of control.
For the compound `NC(Cc1c[nH]c2ccc(N(CCCl)CCCl)cc12)C(=O)O` (configuration not stated), the T/C by setting is: under setting [1], 117 % of control; under setting [2], 108 % of control; under setting [3], 120 % of control; under setting [4], 233 % of control.
Consider `N#Cc1cn(C2OC(CO)C(O)C2O)c2ncnc(N)c12` (configuration not stated), for which the T/C by setting is: (dose: 31.3 micrograms/kg/injection, schedule: Q01DX010 (ip), vehicle: saline) 95 % of control; under setting [5], 99 % of control; under setting [6], 97 % of control.
For `O[C@H](CN1CC1)[C@@H](O)CN1CC1`, the T/C (dose: 0.18 mg/kg/injection, schedule: Q01DX Z (ip), vehicle: saline) was 317 % of control; the T/C (dose: 0.25 mg/kg/injection, schedule: Q01DX Z (ip), vehicle: saline) was 300 % of control; the T/C (dose: 0.37 mg/kg/injection, schedule: Q01DX Z (ip), vehicle: saline) is 223 % of control; the T/C (dose: 5.0 mg/kg/injection, schedule: Q01DX Z (ip), vehicle: saline) was 188 % of control; the T/C (dose: 2.0 micrograms/kg/injection, schedule: Q01DX Z (ip), vehicle: saline) is 109 % of control; the T/C (dose: 4.0 micrograms/kg/injection, schedule: Q01DX Z (ip), vehicle: saline) is 101 % of control. The T/C is, setting by setting: (dose: 6.0 micrograms/kg/injection, schedule: Q01DX Z (ip), vehicle: saline) 98 % of control; (dose: 9.0 micrograms/kg/injection, schedule: Q01DX Z (ip), vehicle: saline) 110 % of control; (dose: 18.0 micrograms/kg/injection, schedule: Q01DX Z (ip), vehicle: saline) 115 % of control; (dose: 37.0 micrograms/kg/injection, schedule: Q01DX Z (ip), vehicle: saline) 103 % of control; (dose: 50.0 micrograms/kg/injection, schedule: Q01DX Z (ip), vehicle: saline) 156 % of control; under setting [5], 120 % of control. In addition, the T/C runs as follows: (dose: 75.0 micrograms/kg/injection, schedule: Q01DX Z (ip), vehicle: saline) 154 % of control and 162 % of control; under setting [6], 111 % of control; (dose: 180.0 micrograms/kg/injection, schedule: Q01DX Z (ip), vehicle: saline) 284 % of control; (dose: 210.0 micrograms/kg/injection, schedule: Q01DX Z (ip), vehicle: saline) 235 % of control; under setting [7], 91 % of control.
For `CC(CCC(C)OS(C)(=O)=O)OS(C)(=O)=O` (configuration not stated), the T/C reads like this: under setting [3], 102 % of control; under setting [8], 94 % of control; under setting [4], 95 % of control and 100 % of control; (dose: 5.0 mg/kg/injection, schedule: Q01DX Z (ip), vehicle: carboxymethylcellulose (CMC)) 97 % of control; (dose: 7.5 mg/kg/injection, schedule: Q01DX Z (ip), vehicle: carboxymethylcellulose (CMC)) 103 % of control; under setting [11], 100 % of control. Further, the T/C was 111 % of control (dose: 10.0 mg/kg/injection, schedule: Q01DX Z (ip), vehicle: carboxymethylcellulose (CMC)); 109 % of control (dose: 12.5 mg/kg/injection, schedule: Q01DX Z (ip), vehicle: carboxymethylcellulose (CMC)); 100 % of control and 112 % of control (dose: 16.0 mg/kg/injection, schedule: Q01DX010 (ip), vehicle: saline); 88 % of control (dose: 25.0 mg/kg/injection, schedule: Q01DX Z (ip), vehicle: carboxymethylcellulose (CMC)); 110 % of control (dose: 32.0 mg/kg/injection, schedule: Q01DX010 (ip), vehicle: saline).
For the compound `O=C(Nc1ccc(C2=NCCN2)cc1)c1ccc(C(=O)Nc2ccc(C3=NCCN3)cc2)c([N+](=O)[O-])c1`, the T/C (dose: 6.0 mg/kg/injection, schedule: Q01DX010 (ip), vehicle: saline) is 102 % of control and 108 % of control; the T/C under setting [11] is 100 % of control and 113 % of control; the T/C (dose: 12.0 mg/kg/injection, schedule: Q01DX010 (ip), vehicle: saline) was 112 % of control and 119 % of control; the T/C (dose: 18.0 mg/kg/injection, schedule: Q01DX010 (ip), vehicle: saline) is 89 % of control and 95 % of control.
Consider `COS(C)(=O)=O`, for which the T/C runs as follows: under setting [9], 93 % of control; under setting [10], 101 % of control; (dose: 25.0 mg/kg/injection, schedule: Q01DX Z (ip), vehicle: saline) 95 % of control; (dose: 50.0 mg/kg/injection, schedule: Q01DX010 (ip), vehicle: saline) 102 % of control; (dose: 50.0 mg/kg/injection, schedule: Q01DX Z (ip), vehicle: saline) 101 % of control; (dose: 75.0 mg/kg/injection, schedule: Q01DX Z (ip), vehicle: saline) 106 % of control. Also, the T/C by setting is: (dose: 100.0 mg/kg/injection, schedule: Q01DX010 (ip), vehicle: saline) 100 % of control; (dose: 100.0 mg/kg/injection, schedule: Q01DX Z (ip), vehicle: saline) 106 % of control.
As to `O=C(Nc1cccc(C(=O)Nc2ccc(C3=NCCN3)cc2)c1)c1ccc(C2=NCCN2)cc1`, the T/C (dose: 54.0 mg/kg/injection, schedule: Q01DX010 (ip), vehicle: saline) is 90 % of control.
